# Experimental data from patent US20170114021A1, “HALOGEN-SUBSTITUTED COMPOUNDS” (priority 2014, published 2017).
# Legend:
# [1] = log P by HPLC on reversed-phase column (C18), EEC Directive 79/831 Annex V.A8; type: physicochemical; conditions: reversed-phase C18 HPLC column; HPLC, C18, acetonitrile/water with formic acid gradient; read-out: log P
# Description: ^a) Unless indicated otherwise, the following method was used to determine the log P values and masses: The determination of the given log P values was carried out in accordance with EEC Directive 79/831 Annex V.A8 by HPLC (High Performance Liquid Chromatography) on a reversed-phase column (C18). Agilent 1100 LC system; 50*4.6 Zorbax Eclipse Plus C18 1.8 micron; mobile phase A: acetonitrile (0.1% formic acid); mobile phase B: water (0.09% formic acid); linear gradient from 10% acetonitrile to 95% acetonitrile in 4.25 min, then 95% acetonitrile for a further 1.25 min; oven temperature 55° C.; flow rate: 2.0 ml/min. Mass detection is effected by means of an Agilend MSD system.
# [2] = tested on: Lucilia cuprina; test: Lucilia cuprina test (LUCICU); type: in vivo; conditions: application rate 100 ppm; L1 larvae; after 2 days
# Description: Lucilia cuprina-Test (LUCICU) Solvent: dimethyl sulphoxide
# (§1) To produce a suitable preparation of active compound, 10 mg of active compound are mixed with 0.5 ml of dimethyl sulphoxide, and the concentrate is diluted with water to the desired concentration.
# About 20 L1 larvae of the Australian sheep blowfly (Lucilia cuprina) are transferred into a test vessel containing minced horsemeat and the active compound preparation of the desired concentration.
# After 2 days, the kill in % is determined. 100% means that all the larvae have been killed; 0% means that no larvae have been killed.
# [3] = tested on: Musca domestica; test: Musca domestica test (MUSCDO); type: in vivo; conditions: application rate 100 ppm; adult houseflies; after 2 days
# Description: Musca domestica-Test (MUSCDO) Solvent: dimethyl sulphoxide
# as §1
# Vessels containing a sponge treated with sugar solution and the active compound preparation of the desired concentration are populated with 10 adult houseflies (Musca domestica).
# After 2 days, the kill in % is determined. 100% means that all of the flies have been killed; 0% means that none of the flies have been killed.
# [4] = tested on: Amblyomma hebraeum; test: Amblyomma hebaraeum test (AMBYHE), tick nymph immersion; type: in vivo; conditions: application rate 20 ppm; tick nymphs; after 42 days
# Description: Amblyomma hebaraeum Test (AMBYHE) Solvent: dimethyl sulphoxide
# as §1
# Tick nymphs (Amblyomma hebraeum) are placed into perforated plastic beakers and immersed in the desired concentration for one minute. The ticks are transferred on filter paper into a Petri dish and stored in a climate-controlled cabinet.
# After 42 days, the kill in % is determined. 100% means that all of the ticks have been killed; 0% means that none of the ticks have been killed.
# [5] = tested on: Tetranychus urticae; test: Tetranychus urticae spray test, OP-resistant (TETRUR); type: in vivo; conditions: application rate 100 g/ha; bean leaf discs; after 6 days
# Description: Tetranychus urticae—Spray Test, OP-Resistant (TETRUR) Solvent: 78.0 parts by weight of acetone • • 1.5 parts by weight of dimethylformamide Emulsifier: alkylaryl polyglycol ether
# (§2) To produce a suitable preparation of active compound, 1 part by weight of active compound is dissolved using the specified parts by weight of solvent and made up with water containing an emulsifier concentration of 1000 ppm until the desired concentration is attained. To produce further test concentrations, the preparation is diluted with emulsifier-containing water.
# Discs of bean leaves (Phaseolus vulgaris) infested by all stages of the greenhouse red spider mite (Tetranychus urticae) are sprayed with an active ingredient formulation of the desired concentration.
# After 6 days, efficacy in % is determined. 100% means that all the spider mites have been killed; 0% means that no spider mites have been killed.
# [6] = tested on: Boophilus microplus Parkhurst strain, SP-resistant; test: Boophilus microplus dip test (BOOPMI Dip); type: in vivo; conditions: application rate 20 ppm; engorged adult female cattle ticks; after 7 days
# Description: Boophilus microplus—Dip Test (BOOPMI Dip) Test animals: cattle ticks (Boophilus microplus) Parkhurst strain, SP-resistant Solvent: dimethyl sulphoxide
# 10 mg of active compound are dissolved in 0.5 ml of dimethyl sulphoxide. To produce a suitable formulation, the active compound solution is diluted with water to the concentration desired in each case.
# This active compound preparation is pipetted into tubes. 8-10 engorged adult female cattle ticks (Boophilus microplus) are transferred into a further tube with holes. The tube is immersed into the active compound preparation, and all the ticks are completely wetted. After the liquid has run out, the ticks are transferred on filter discs into plastic dishes and stored in a climate-controlled room.
# (§3) Efficacy is assessed after 7 days by laying of fertile eggs. Eggs which are not visibly fertile are stored in a climate-controlled cabinet until the larvae hatch after about 42 days. An efficacy of 100% means that none of the ticks has laid any fertile eggs; 0% means that all the eggs are fertile.
# [7] = tested on: Ctenocephalides felis; test: Ctenocephalides felis in vitro contact test; type: in vivo; conditions: application rate 5 μg/cm^2; adult cat fleas; after 48 h
# Description: Ctenocephalides felis—In Vitro Contact Test
# (§4) For the coating of the test tubes, 9 mg of active compound are first dissolved in 1 ml of acetone p.a. and then diluted to the desired concentration with acetone p.a. 250 μl of the solution are distributed homogeneously on the inner walls and the base of a 25 ml test tube by turning and rocking on an orbital shaker (rocking rotation at 30 rpm for 2 h). With 900 ppm active compound solution and internal surface 44.7 cm^2, given homogeneous distribution, an area-based dose of 5 μg/cm^2 is achieved.
# After the solvent has evaporated off, the tubes are populated with 5-10 adult cat fleas (Ctenocephalides felis), sealed with a perforated plastic lid and incubated in a horizontal position at room temperature and ambient humidity. After 48 h, efficacy is determined. To this end, the test tubes are stood upright and the fleas are knocked to the base of the tube. Fleas which remain motionless at the base or move in an uncoordinated manner are considered to be dead or moribund.
# 100% efficacy means that all the fleas were dead or moribund. 0% efficacy means that no fleas were harmed.
# [8] = tested on: Spodoptera frugiperda; test: Spodoptera frugiperda spray test (SPODFR); type: in vivo; conditions: application rate 100 g/ha; maize leaf discs; after 7 days
# Description: Spodoptera frugiperda—Spray Test (SPODFR)
# Solvent: 78.0 parts by weight of acetone • • 1.5 parts by weight of dimethylformamide Emulsifier: alkylaryl polyglycol ether
# as §2
# Leaf discs of maize (Zea mays) are sprayed with an active compound preparation of the desired concentration and, after drying, populated with caterpillars of the armyworm (Spodoptera frugiperda).
# After 7 days, efficacy in % is determined. 100% means that all the caterpillars have been killed; 0% means that no caterpillars have been killed.
# [9] = tested on: Ctenocephalides felis; test: Ctenocephalides felis oral test (CTECFE); type: in vivo; conditions: application rate 100 ppm in citrated cattle blood; after 2 days
# Description: Ctenocephalides felis—Oral Test (CTECFE) Solvent: dimethyl sulphoxide
# To produce a suitable preparation of active compound, 10 mg of active compound are mixed with 0.5 ml of dimethyl sulphoxide. Dilution with citrated cattle blood gives the desired concentration.
# About 20 unfed adult cat fleas (Ctenocephalides felis) are placed into a chamber which is closed at the top and bottom with gauze. A metal cylinder whose bottom end is closed with parafilm is placed onto the chamber. The cylinder contains the blood/active compound preparation, which can be imbibed by the fleas through the parafilm membrane.
# After 2 days, the kill in % is determined. 100% means that all of the fleas have been killed; 0% means that none of the fleas have been killed.
# [10] = tested on: Boophilus microplus; test: Boophilus microplus injection test (BOOPMI Inj); type: in vivo; conditions: application rate 20 μg/animal; injection into abdomen
# Description: Boophilus microplus—Injection Test (BOOPMI Inj) Solvent: dimethyl sulphoxide
# To produce a suitable preparation of active compound, 10 mg of active compound are mixed with 0.5 ml of solvent and the concentrate is diluted with solvent to the desired concentration.
# 1 μl of the active compound solution is injected into the abdomen of 5 engorged adult female cattle ticks (Boophilus microplus). The animals are transferred into dishes and kept in a climate-controlled room.
# as §3, with “The activity” for “Efficacy”, “the desired time” for “7 days”
# [11] = tested on: Rhipicephalus sanguineus; test: Rhipicephalus sanguineus in vitro contact test; type: in vivo; conditions: application rate 5 μg/cm^2; adult dog ticks; after 48 h
# Description: Rhipicephalus sanguineus—In Vitro Contact Tests
# as §4
# After the solvent has evaporated off, the tubes are populated with 5-10 adult dog ticks (Rhipicephalus sanguineus), sealed with a perforated plastic lid and incubated in a horizontal position in the dark at room temperature and ambient humidity. After 48 h, efficacy is determined. To this end, the ticks are knocked to the floor of the tube and incubated on a hotplate at 45-50° C. for not more than 5 min. Ticks which remain motionless on the floor or move in such an uncoordinated manner that they are unable to deliberately avoid the heat by climbing upwards are considered to be dead or moribund.
# An efficacy of 100% means that all the ticks were dead or moribund. 0% efficacy means that none of the ticks had been harmed.
# [12] = tested on: Phaedon cochleariae; test: Phaedon cochleariae spray test (PHAECO); type: in vivo; conditions: application rate 100 g/ha; Chinese cabbage leaf discs; after 7 days
# Description: Phaedon cochleariae—Spray Test (PHAECO) Solvent: 78.0 parts by weight of acetone • • 1.5 parts by weight of dimethylformamide Emulsifier: alkylaryl polyglycol ether
# as §2
# After 7 days, efficacy in % is determined. 100% means that all the beetle larvae have been killed; 0% means that no beetle larvae have been killed.
smiles,measurement,setting,value
"Cn1nc(C(F)(F)C(F)(F)F)c(C(F)(F)F)c1-c1cn(-c2ccc(Cl)c(C(=O)NC3CC3)c2)nn1 [Ig-1, 2-chloro-N-cyclopropyl-5-{4-[1-methyl-3-(pentafluoroethyl)-4-(trifluoromethyl)-1H-pyrazol-5-yl]-1H-1,2,3-triazol-1-yl}benzamide]",chromatographic logP,[1],3.67
same,efficacy (kill),[2],100%
same,efficacy (kill),[3],100%
same,efficacy (kill),[4],100%
same,efficacy,[5],100%
same,efficacy (laying of fertile eggs),[6],100%
same,efficacy,[7],100%
same,efficacy,[8],100%
same,efficacy (kill),[9],100%
same,efficacy (laying of fertile eggs),[10],100%
same,efficacy,[11],100%
same,efficacy,[12],100%
